Literature values, collected in US20020103221A1, “Use of growth hormone secretagogues for improvement of functional health status” (priority 2000, published 2002).
Non-standard residues stand in square brackets, D forms with d. Residues, ends and D or L forms follow the SMILES beside them. d2Nal = N[C@H](Cc1ccc2ccccc2c1)C(=O)O; Aib = CC(C)(N)C(=O)O

What was measured:
[1] = system: serum insulin-like growth factor-I; quadriceps muscle; details: canines, during remobilization
[2] = system: markers of bone formation and bone resorption; details: obese young males
[3] = adult female rats
[4] = GH-deficient adults

CC(C)(N)C(=O)N[C@H](COCc1ccccc1)C(=O)N1CCC2(CC1)CN(S(C)(=O)=O)c1ccccc12 [MK-0677]
levels of serum insulin-like growth factor-I [1]: elevated
size and strength of the quadriceps muscle [1]: increased
markers of bone formation and bone resorption [2]: increases

CC(C)(N)C(=O)N[C@@H](Cc1c[nH]cn1)C(=O)N[C@H](Cc1ccc2ccccc2c1)C(=O)N[C@H](Cc1ccccc1)C(=O)N[C@@H](CCCCN)C(N)=O [ipamorelin] (H-[Aib]H[d2Nal][dF]K-NH2)
bone mass [3]: capacity to increase bone mass

GHRP-6
bone mass [3]: capacity to increase bone mass

growth hormone: growth hormone replacement given to GH-deficient adults
self-perceived well-being [4]: significant improvements
